Measurements reported in patent publication US8513250B2 (Laboratoire Biodim, priority 2007, dated 2013).

Molecular target: T1, DltA enzyme (Streptococcus agalactiae serotype III, UniProt Q8VM67)
T1 construct: His-tag (from pET100 vector) (N); made in house; host or cells: E. coli BL21 (DE3) Star
T1 sequence (Q8VM67 1-511): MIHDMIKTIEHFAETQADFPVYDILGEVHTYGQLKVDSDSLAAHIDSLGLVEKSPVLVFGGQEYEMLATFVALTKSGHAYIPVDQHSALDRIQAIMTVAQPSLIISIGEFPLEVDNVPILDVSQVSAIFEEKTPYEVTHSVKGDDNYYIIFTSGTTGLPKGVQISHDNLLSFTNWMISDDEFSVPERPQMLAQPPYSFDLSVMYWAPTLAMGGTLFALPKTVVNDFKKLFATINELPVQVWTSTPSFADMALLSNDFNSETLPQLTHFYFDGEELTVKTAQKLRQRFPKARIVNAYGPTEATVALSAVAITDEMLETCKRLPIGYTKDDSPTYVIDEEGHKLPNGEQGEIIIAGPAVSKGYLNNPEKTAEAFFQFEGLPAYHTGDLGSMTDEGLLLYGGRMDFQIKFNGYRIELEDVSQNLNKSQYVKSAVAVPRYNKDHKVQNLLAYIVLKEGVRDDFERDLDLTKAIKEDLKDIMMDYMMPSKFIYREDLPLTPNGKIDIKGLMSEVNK
Assay: DltA HTS assays (luminescent / fluorescent), inhibition of DltA enzymatic activity in vitro
Assay type: biochemical, S. agalactiae
Conditions: Table 1; DltA inhibition, HTS assays of method 1; read-out: IC50
Excerpt: The compounds effect on DltA enzyme has been based on the measure of the inhibition of DltA activity in vitro.
To this end, a recombinant protein Dlta was expressed and purified after cloning of the gene of S. agalatiae as described below:
Methods 1: DltA HTS Assays
The assay described below makes use of dithiothreitol (DTT) instead of DltC as reactive thiol in the catalyzed reaction. In fact, the inventors have shown that DTT, but also Coenzyme A and N-Acetylcysteamine are all thiols able to replace efficiently DltC. In addition, contrary to the prior art, radioactivity is not used: all the assays are based either on luminescent ATP detection, or on fluorescent AMP detection. They are easily amenable to miniaturized formats and fast readouts as required by HTS.
The assay buffer “AB” contains 50 mM Hepes pH8.0, 10 mM MgCl2, 50 mM KCl, 0.012% Triton-X100. The following components are added in a white polystyrene Costar plate up to a final volume of 30 μL: 3 μL DMSO, or inhibitor dissolved in DMSO and 27 μL DltA enzyme and DTT in AB. After 30 min of pre-incubation at room temperature, 30 μL of Substrates mix in AB are added in each well to a final volume of 60 μL. This reaction mixture is then composed of 10 nM DltA (produced in house from S. agalactiae), 0.5 mM D-Alanine (Sigma), 0.5 μM ATP (Sigma) and 1 mM DTT (Biochemika) in assay buffer. After 90 min of incubation at room temperature, 30 μL of the revelation mix are added to a final volume of 90 μL, including the following constituents at the respective final concentrations: 2 nM luciferase (Sigma), 30 μM D-luciferin (Sigma), 100 μM N-acetylcysteamine (Aldrich). Luminescence intensity is immediately measured on an Analyst-HT (Molecular Devices) and converted into inhibition percentages. For IC50 (Inhibitory Concentration 50%) determinations, the inhibitor is added at 6 to 10 different concentrations, and the related inhibitions are fitted to a classical langmuir equilibrium model using XLFIT (IDBS).
The assay buffer “AB” contains 50 mM Hepes pH8.0, 10 mM MgCl2, 50 mM KCl, 0.012% Triton-X100. The following components are added in a black polystyrene Costar plate up to a final volume of 50 μL: 5 μL DMSO, or inhibitor dissolved in DMSO and 45 μL DltA enzyme and DTT in AB. After 30 min of pre-incubation at room temperature, 50 μL of Substrates-revelation mix in AB are added in each well to a final volume of 100 μL. This reaction mixture is then composed of 5 nM DltA (produced in house from S. agalactiae), 0.5 mM D-Alanine (Sigma), 10 μM ATP (Sigma), 1 mM DTT (Biochemika), 10 nM Adenylate kinase (produced in house), 5 u/mL Pyruvate Kinase (Sigma), 50 μM phosphoenolpyruvate (Sigma), 5 u/mL Lactate deshydrogenase (Sigma) and 3 μM NADH (Sigma) in assay buffer. Fluorescence intensity of NADH (λex=360 nm, λem=520 nm) is immediately measured kinetically by a Fluostar Optima (BMG). Inhibition percentages are derived from fitted initial velocities. For IC50 determinations, the inhibitor is added at 6 to 10 different concentrations, and the related inhibitions are fitted to a classical langmuir equilibrium model using XLFIT (IDBS). FIG. 2 represents the data obtained using this method.
The capacity of compounds to inhibit DltA enzymatic activity was assessed using the DltA HTS assays described in method 1.

CC(=O)N1CC=C(c2cnc3c(NCCCO)nc4cc(C(F)(F)F)ccc4n23)CC1 [Example 28, 1-{4-[4-(3-hydroxy-propylamino)-7-trifluoromethyl-imidazo[1,2-a]quinoxalin-1-yl]-3,6-dihydro-2H-pyridin-1-yl}-ethanone]
IC50: 650 nM

COc1ccc(-n2cnc3c(NCCCO)nc4cc(C(F)(F)F)ccc4c32)cc1 [Example 24, 3-[1-(4-Methoxy-phenyl)-7-trifluoromethyl-1H-imidazo[4,5-c]quinolin-4-ylamino]-propan-1-ol]
IC50: 3900 nM

NS(=O)(=O)c1cccc(-c2cnc3c(NCCCO)nc4cc(C(F)(F)F)ccc4n23)c1 [Example 9, 3-{4-[(3-hydroxypropyl)amino]-7-(trifluoromethyl)imidazo[1,2-a]quinoxalin-1-yl}benzenesulfonamide]
IC50: 690 nM

Nc1ncc(-c2cnc3c(NCCCO)nc4cc(C(F)(F)F)ccc4n23)cn1 [Example 20, 3-{[1-(2-aminopyrimidin-5-yl)-7-(trifluoromethyl)imidazo[1,2-a]quinoxalin-4-yl]amino}propan-1-ol]
IC50: 860 nM

C=Cc1cnc2c(NCCCO)nc3cc(C(F)(F)F)ccc3n12 [Example 22, 3-{[7-(trifluoromethyl)-1-vinylimidazo[1,2-a]quinoxalin-4-yl]amino}propan-1-ol]
IC50: 1000 nM

OCCCNc1nc2cc(C(F)(F)F)ccc2n2c(C3=CCNCC3)cnc12 [Example 27, 3-[1-(1,2,3,6-tetrahydro-pyridin-4-yl)-7-trifluoromethyl-imidazo[1,2-a]quinoxalin-4-ylamino]-propan-1-ol]
IC50: 2600 nM

CNC(=O)c1ccc(-c2cnc3c(NCCCO)nc4cc(C(F)(F)F)ccc4n23)cc1 [Example 15, 4-{4-[(3-hydroxypropyl)amino]-7-(trifluoromethyl)imidazo[1,2-a]quinoxalin-1-yl}-N-methylbenzamide]
IC50: 200 nM

OCCCNc1nc2cc(-c3ccccc3C(F)(F)F)ccc2n2c(-c3ccn[nH]3)cnc12 [Example 54, 3-{[1-(1H-pyrazol-5-yl)-7-(2-[trifluoromethyl]phenyl)imidazo[1,2-a]quinoxalin-4-yl]amino}propan-1-ol]
IC50: 22 nM

OCCCNc1nc2cc(C(F)(F)F)ccc2n2c(-c3cc(CO)n[nH]3)cnc12 [Example 49, 3-({1-[3-(hydroxymethyl)-1H-pyrazol-5-yl]-7(trifluoromethyl)imidazo[1,2-a]quinoxalin-4-yl}amino)propan-1-ol]
IC50: 16 nM

COc1ccc(-c2cnc3c(NCCCO)nc4cc(C(F)(F)F)ccc4n23)cc1 [Example 10, 3-{[1-(4-methoxyphenyl)-7-(trifluoromethyl)imidazo[1,2-a]quinoxalin-4-yl]amino}propan-1-ol]
IC50: 230 nM

Cc1cn[nH]c1-c1cnc2c(NCCCO)nc3cc(C(F)(F)F)ccc3n12 [Example 40, 3-({1-[4-methyl-1H-pyrazol-5-yl]-7-(trifluoromethyl)imidazo[1,2-a]quinoxalin-4-yl}amino)propan-1-ol]
IC50: 57 nM

O=Cc1cnc2c(NCCCO)nc3cc(C(F)(F)F)ccc3n12 [Example 41, 4-[(3-hydroxypropyl)amino]-7-(trifluoromethyl)imidazo[1,2-a]quinoxaline-1-carbaldehyde]
IC50: 4600 nM

OCCCNc1nc2cc(C(F)(F)F)c(NCc3ccccc3)cc2n2ccnc12 [Example 56, 3-{[8-(benzylamino)-7-(trifluoromethyl)imidazo[1,2-a]quinoxalin-4-yl]amino}propan-1-ol]
IC50: 810 nM

OCCCNc1nc2cc(C(F)(F)F)ccc2n2c(-c3cc(-c4cccnc4)n[nH]3)cnc12 [Example 33, 3-({1-[3-(3-pyridinyl)-1H-pyrazol-5-yl]-7-(trifluoromethyl)imidazo[1,2-a]quinoxalin-4-yl}amino)propan-1-ol]
IC50: 25 nM

OCCCNc1nc2cc(Br)ccc2n2ccnc12 [Example 4, 3-(7-bromo-imidazo[1,2-a]quinoxalin-4-ylamino)-propan-1-ol]
IC50: 6600 nM

OCCCNc1nc2cc(C(F)(F)F)ccc2c2c1ncn2[C@H]1CC[C@H](O)CC1 [Example 26, 4-[4-(3-hydroxy-propylamino)-7-trifluoromethyl-imidazo[4,5-c]quinolin-1-yl]-cyclohexanol]
IC50: 20000 nM

OCCCNc1nc2cc(C(F)(F)F)ccc2n2c(Br)cnc12 [Example 2, 3-{[1-bromo-7-(trifluoromethyl)imidazo[1,2-a]quinoxalin-4 yl]amino}propan-1-ol]
IC50: 2500 nM

COc1cc(-c2cnc3c(NCCCO)nc4cc(C(F)(F)F)ccc4n23)ccc1N [Example 21]
IC50: 270 nM

OCCCNc1nc2cc(C(F)(F)F)ccc2n2c(-c3[nH]ncc3Cl)cnc12 [Example 38, 3-({1-(4-chloro-1H-pyrazol-5-yl)-7-(trifluoromethyl)imidazo[1,2-a]quinoxalin-4-yl}amino)propan-1-ol]
IC50: 13.5 nM

OCCCNc1nc2cc(C(F)(F)F)ccc2n2c(-c3cn(Cc4ccccc4)nn3)cnc12 [Example 34]
IC50: 580 nM

OCCCNc1nc2cc(C(F)(F)F)c(CNc3ccccn3)cc2n2ccnc12 [Example 53, 3-({8-[(pyridin-2-ylamino)methyl]-7-(trifluoromethyl)imidazo[1,2-a]quinoxalin-4-yl}amino)propan-1-ol]
IC50: 510 nM

OCCCNc1nc2cc(C(F)(F)F)ccc2n2c(CO)cnc12 [Example 42, 3-{[1-(hydroxymethyl)-7-(trifluoromethyl)imidazo[1,2-a]quinoxalin-4-yl]amino}propan-1-ol]
IC50: 1100 nM
